{"source": "patent US20190307762A1", "about": "“METHODS AND COMPOSITIONS FOR THE TREATMENT OF TRAUMA AND STRESSOR-RELATED DISORDERS” (priority 2016, published 2019)", "origin": "cited, not measured here", "key": {"[1]": {"test_system": "cholinergic receptors", "settings": "in vitro"}, "[2]": {"test_system": "cGMP"}, "[3]": {"test_system": "histamine (H1.H2), serotonin (5-HT2), dopamine (D2.D1), adrenergic (al) receptors", "settings": "in vitro; decreasing order H1.H2, 5-HT2, D2.D1, al"}, "[4]": {"test_system": "generalized anxiety disorders", "settings": "versus placebo and alprazolam"}, "[5]": {"target": "sigma 2 receptors (Homo sapiens, UniProt Q5BJF2)", "sequence (Q5BJF2 whole entry)": "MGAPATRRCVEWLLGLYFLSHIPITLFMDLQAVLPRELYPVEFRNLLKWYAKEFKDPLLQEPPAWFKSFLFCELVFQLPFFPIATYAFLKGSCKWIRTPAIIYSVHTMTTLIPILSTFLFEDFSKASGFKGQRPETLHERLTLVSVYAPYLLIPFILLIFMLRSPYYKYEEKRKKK"}, "[6]": {"test_system": "sigma"}, "[7]": {"test_system": "serotonin (5-HT) or noradrenaline reuptake"}, "[8]": {"target": "cytochrome P-450 3A4 (Homo sapiens, UniProt P08684)", "sequence (P08684 whole entry)": "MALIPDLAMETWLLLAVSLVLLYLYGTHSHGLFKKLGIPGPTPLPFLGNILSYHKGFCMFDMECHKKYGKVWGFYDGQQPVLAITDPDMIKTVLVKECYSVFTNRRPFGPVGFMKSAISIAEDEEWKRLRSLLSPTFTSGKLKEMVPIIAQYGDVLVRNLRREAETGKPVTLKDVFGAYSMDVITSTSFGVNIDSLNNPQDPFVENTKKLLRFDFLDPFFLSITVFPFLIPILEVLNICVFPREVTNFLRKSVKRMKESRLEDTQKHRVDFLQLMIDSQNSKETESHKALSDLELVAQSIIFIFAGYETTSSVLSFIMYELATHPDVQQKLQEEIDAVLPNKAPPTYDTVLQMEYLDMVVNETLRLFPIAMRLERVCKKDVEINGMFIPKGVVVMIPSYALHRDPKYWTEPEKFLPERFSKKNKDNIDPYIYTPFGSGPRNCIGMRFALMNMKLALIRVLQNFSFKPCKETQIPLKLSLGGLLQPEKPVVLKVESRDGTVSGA"}, "[9]": {"test_system": "neurological tissue", "settings": "preclinical; linked to binding to sigma one receptors"}, "[10]": {"settings": "in vivo"}, "[11]": {"settings": "for Equivalent amount: dose equivalent to 20 mg hydrocortisone; for Hydrocortisone equivalent (1 mg of the glucocorticoid corresponds to the listed amount in mg of hydrocortisone): per 1 mg of the glucocorticoid"}}}
{"compound": "OCCN1CCN(CCCN2c3ccccc3C=Cc3ccccc32)CC1", "note": "[opipramol]", "values": [{"measurement": "receptor blockade", "setting": "[1]", "result": "very weakly"}, {"measurement": "levels of cGMP", "setting": "[2]", "result": "induces increased levels of cGMP"}, {"measurement": "receptor blockade", "setting": "[3]", "result": "blocks the following receptors in decreasing order"}, {"measurement": "anxiolytic efficacy", "setting": "[4]", "result": "superiority over placebo and similar efficacy to alprazolam"}, {"measurement": "signaling at sigma 2 receptors", "setting": "[5]", "result": "down regulate signaling at sigma 2 receptors"}, {"measurement": "sigma ligand strength", "setting": "[6]", "result": "strong sigma ligand"}, {"measurement": "reuptake inhibiting properties", "setting": "[7]", "result": "without reuptake inhibiting properties"}, {"measurement": "CYP substrate", "setting": "[8]", "result": "CYP3A substrate"}, {"measurement": "protection against glutamate mediated toxicity", "setting": "[9]", "result": "ability to protect neurological tissue against the effects of glutamate mediated toxicity"}, {"measurement": "risk of drug dependence", "setting": "[10]", "result": "no risk of drug dependence"}]}
{"compound": "C[C@]12C=CC(=O)C=C1CC[C@H]1[C@@H]3C[C@@H](O)[C@](O)(C(=O)CO)[C@@]3(C)C[C@H](O)[C@@]12F", "note": "[Triamcinolone]", "values": [{"measurement": "Equivalent amount", "setting": "[11]", "result": 4, "unit": "mg"}, {"measurement": "Hydrocortisone equivalent (1 mg of the glucocorticoid corresponds to the listed amount in mg of hydrocortisone)", "setting": "[11]", "result": 5, "unit": "mg"}]}
{"compound": "C[C@]12CCC(=O)C=C1CC[C@@H]1[C@@H]2[C@@H](O)C[C@@]2(C)[C@H]1CC[C@]2(O)C(=O)CO", "note": "[Hydrocortisone]", "values": [{"measurement": "Equivalent amount", "setting": "[11]", "result": 20, "unit": "mg"}, {"measurement": "Hydrocortisone equivalent (1 mg of the glucocorticoid corresponds to the listed amount in mg of hydrocortisone)", "setting": "[11]", "result": 1, "unit": "mg"}]}
{"compound": "C[C@H]1C[C@H]2[C@@H]3CCC4=CC(=O)C=C[C@]4(C)[C@@]3(F)[C@@H](O)C[C@]2(C)[C@@]1(O)C(=O)CO", "note": "[Betarnethasone]", "values": [{"measurement": "Equivalent amount", "setting": "[11]", "result": 0.75, "unit": "mg"}, {"measurement": "Hydrocortisone equivalent (1 mg of the glucocorticoid corresponds to the listed amount in mg of hydrocortisone)", "setting": "[11]", "result": 26.66, "unit": "mg"}]}
{"compound": "C[C@]12C=CC(=O)C=C1CC[C@@H]1[C@@H]2[C@@H](O)C[C@@]2(C)[C@H]1CC[C@]2(O)C(=O)CO", "note": "[Prednisolone]", "values": [{"measurement": "Equivalent amount", "setting": "[11]", "result": 5, "unit": "mg"}, {"measurement": "Hydrocortisone equivalent (1 mg of the glucocorticoid corresponds to the listed amount in mg of hydrocortisone)", "setting": "[11]", "result": 4, "unit": "mg"}]}
{"compound": "CC(=O)OCC(=O)[C@@]1(O)CC[C@H]2[C@@H]3CCC4=CC(=O)CC[C@]4(C)[C@H]3C(=O)C[C@@]21C", "note": "[Cortisone acetate]", "values": [{"measurement": "Equivalent amount", "setting": "[11]", "result": 25, "unit": "mg"}, {"measurement": "Hydrocortisone equivalent (1 mg of the glucocorticoid corresponds to the listed amount in mg of hydrocortisone)", "setting": "[11]", "result": 0.8, "unit": "mg"}]}
{"compound": "C[C@@H]1C[C@H]2[C@@H]3C[C@H](F)C4=CC(=O)C=C[C@]4(C)[C@H]3[C@@H](O)C[C@]2(C)[C@@]1(O)C(=O)CO", "note": "[Pararnethasone]", "values": [{"measurement": "Equivalent amount", "setting": "[11]", "result": 2, "unit": "mg"}, {"measurement": "Hydrocortisone equivalent (1 mg of the glucocorticoid corresponds to the listed amount in mg of hydrocortisone)", "setting": "[11]", "result": 10, "unit": "mg"}]}
